One assay has as its system hydrogen peroxide. The assay is described as follows: Europium-tetracycline (EuTc) fluorescence assay for hydrogen peroxide generation. Type of assay: biochemical. From the text:
For a confirmation of the POG redox cycling, hydrogen peroxide formed by peroxygenin from elemental oxygen was quantified. For this purpose, a fluorescence-based europium tetracycline assay in 3-(N-morpholino)propanesulfonic acid (MOPS) buffer at pH 6.9, close to the physiological pH, was adapted for monitoring of hydrogen peroxide released from POG-4 (Wolfbeis et al., 2002; Dürkop et al., 2005; Wu et al., 2005; Schrenkhammer et al., 2007) Reportedly, this assay is based on the formation of an quaternary pentagonal bipyramidal Eu(III)-tetracycline (Tc) complex of the stoichiometry Eu2Tc2 (Karthikeyan et al., 2004) in which one equivalent of hydrogen peroxide forms a bridged peroxide complex (µ-H2O2 ligand) (Dehaen et al. 2009) and upon excitation at 405 nm fluoresces at 616 nm. First, the sensitivity of the assay toward hydrogen peroxide was investigated. For that, different hydrogen peroxide concentrations, ranging from 10 µM to 1000 µM, were used to analyze the fluorescence signal (Figures 2A and 2B, curves 6 to 14 and 26 to 34; curves 6 and 26:1000 µM, curves 7 and 27: 800 µM, curves 8 and 28: 400 µM, curves 9 and 29: 200 µM, curves 10 and 30: 100 µM, curves 11 and 31: 50 µM, curves 12 and 32: 25 µM, curves 13 and 33: 10 µM, curves 14 and […]).
Next, the same assay conditions were applied to quantify hydrogen peroxide formation from POG-4 (V3) (referred to in the following simply as POG-4) having the following formula: [drawing 142] […]
Protocol: The assay was performed in cuvettes with a base area of 1 cm x 1 cm. Measurement of fluorescence intensity was carried out with a fluorescence spectrometer FP-6500 by Jasco at λem = 616 nm (λex = 405 nm). […]
H2O2 calibration: DTT (10 µL, 200 mM; 1mM final concentration) were added to Eu2Tc2 (2 mL) solution in a cuvette and equilibrated by stirring for 5 min at 37 °C until the fluorescence signal was constant. […] All measurements were repeated three times and a mean was calculated. […]

Assay [1] has as its system Eµ-myc;Bcl2 lymphoma cells. Briefly: 22-hours cytotoxicity assay (dye exclusion) in therapy-induced senescence (TIS) model. The assay is classed as cell-based, murine. The settings on record: ADR 0.02 µg/ml for 10 d; for senolytic activity in senescent cells protected by expression of catalase: catalase overexpression, POG for 22 h. The procedure: TIS: Eµ-myc;Bcl2 lymphoma cells (with or without catalase overexpression) and senescence-/p53-deficient Eµ-myc; Bcl2 lymphoma cells were treated with ADR (0.02 µg/ml) or solvent.
(§1) All cells were analyzed at day 10 after start of the treatment and oncogene induction, respectively. Shown in grey in the first (left) column are mean percentages of senescence-associated beta-galactosidase (SA-β-gal)-)positive cells for each treatment. Proliferating cells and their senescent counterpart were exposed to the same increasing concentrations of POG (from left to right: murine Eµ-myc lymphoma cells and primary mouse fibroblasts = 0, 0.2, 0.4, 0.8, and 1.2 µM) POG, for VIS and RS = 0, 2, 3, 4, and 5 µM) POG, and for all others = 0, 1, 2, 3, and 4 µM) POG) for 22 h before measuring their viabilities using a dye exclusion test.
Viability of solvent-treated cells were set to 100% for each treatment and viabilities of POG-treated cells were normalized relative to solvent-treated controls.
The senescent state was documented by specific measurement of increased SA-β-galactosidase activity. […] Eµ-myc;Bcl2 lymphoma cells (with or without ectopic catalase overexpression, introduced via stable retroviral gene transfer) and senescence-/p53-deficient Eµ-myc;Bcl2 lymphoma cells were treated with ADR (0.02 µg/ml) or solvent for 10 d. Proliferating cells and their senescent counterpart were exposed to the same increasing concentrations of POG for 22 h before measuring their viabilities using a dye exclusion test (Ghost Dye Red 780, 13-0865-T500, Tonbo). Viability of solvent-treated cells were set to 100% for each treatment and viabilities of POG-treated cells were normalized relative to solvent-treated controls.

For assay [2], the system named is Primary mouse embryo fibroblasts (MEF). The assay is described as follows: Viability of rotenone-treated MEF with raised cellular NADH (dye exclusion assay). Type of assay: cell-based. The settings on record: 500 nM rotenone 2 h prior to POG exposure (1 µM), viability 22 h later. On the procedure:
Increasing cellular NADH levels sensitizes cells towards POG-mediated killing in a H2O2-dependent fashion. Primary mouse embryo fibroblasts (MEF) were stably transduced with a catalase-overexpressing retrovirus or empty virus and exposed to 500 nM rotenone (an NADH dehydrogenase inhibitor used to increase cellular NADH levels via inhibition of the mitochondrial complex I) 2 h prior to POG exposure (1 µM) before measuring cell viabilities 22 h later using a dye exclusion assay (Ghost Dye Red 780, 13-0865-T500, Tonbo). Figure 5 illustrates the results in form of means ± standard deviation (SD).

In assay [3] the test system is C57/BL6 mice. The assay is described as follows: Rotarod performance test in aged mice. Type of assay: in vivo. To be noted: 10-months old mice, 0.25 mg/kg body weight i.v. twice every fortnight, rotarod one month later, versus solvent. The procedure:
To quantify the global impact of POG on age-related physical decline, a rotarod performance test was conducted, which captures the time mice can run on a rotating rod before falling off due to exhaustion.
For the experiments, the results of which are shown in Figure 7A, C57/BL6 mice (10-months old, "old mice") were treated twice with POG (0.25 mg/kg body weight, i.v. injected every fortnight; n = 11) or solvent (n = 11), before their physical performance was assessed using a rotarod device one month later (from 4 to 40 rpm in 180 s; acceleration rate: 0.2 rpm/s). For comparison a cohort of untreated young mice (8-weeks old; n = 10) was measured in parallel. Each datapoint represents the maximum time the (previously trained) animal was able to remain on the rotating rod from 5 consecutive runs per mouse.
A general note: In the rotarod test animals must keep their balance on a rotating rod.

For assay [4], the system named is Eµ-myc transgenic lymphomas. Briefly: Overall survival of CTX-treated lymphoma-bearing mice with sequential POG exposure. The assay is classed as in vivo. The settings on record: CTX 1 × 300 mg/kg i.p. then POG 2 × 0.25 mg/kg i.v. On the procedure:
The inventors also analyzed the impact of a sequential POG exposure on overall survival in chemotherapy-exposed mice bearing senescence-capable vs. senescence-incapable lymphomas. […] In essence, POG treatment led to reduction of senescent cells in vivo, and extended healthy lifespan of aged and anticancer-treated mice.
CTX treatment: 1 × 300 mg/kg body weight via i.p., POG treatment: 2 × 0.25 mg/kg body weight via the i.v. application route. Figure 7B illustrates means ± SD, wherein an unpaired two-tailed Student's t test was done for statistical analysis (*P < 0.05).

The test system of the next assay is Liver cell preparations. The assay is described as follows: Ex vivo treatment of liver cell preparations (SA-β-gal, TUNEL, DAPI staining). The assay is classed as cell-based, C57/BL6 mice. To be noted: old (20-months old) mice, ex vivo 22 h, POG 1.5 µM. The procedure:
Liver cell preparations from young (10-weeks old) and old (20-months old) C57/BL6 mice were treated ex vivo for 22 h with POG (1.5 µM) or solvent. Cells were fixed and stained for SA-β-gal, TUNEL (Terminal deoxynucleotidyl transferase dUTP nick end labeling) and DAPI (4',6-diamidino-2-phenylindole). Percentage of senescent (SA-β-gal-positive) cells present in the viable (TUNEL-negative) liver cell population (Figure 8A) and overall viability of the liver cell population (Figure 8B) was quantified via fluorescence microscopy.

Assay [5] concerns Primary mouse fibroblasts (MEF). The assay is described as follows: NMU-induced transformation of MEF, soft-agar colony formation. The assay is classed as cell-based. The settings on record: 2 mM NMU for 5 weeks, POG-4 1.0 µM, 10 weeks in 0.3 % soft-agar. The procedure:
Primary mouse fibroblasts (MEF) were treated for 5 weeks with 2 mM N-nitroso-N-methylurea (NMU) or solvent to mutagenize their genomes. Selective killing of senescent subpopulation was assessed by measuring the percentage of SA-β-gal positive cells after POG-4 exposure (1.0 µM for 22 h). […] 2 × 10^4 of viable NMU-pre-treated MEF with or without subsequent POG-4 exposure (1.0 µM) from the experiment of Figure 9A were seeded in 0.3 % soft-agar and cultivated for 10 weeks, before formation of colonies (>50 cells/colony) was quantified. Again, means ± SD are illustrated POG-mediated senolysis of DMBA-induced OIS cells was tested; the results are depicted in Figure 10. Like NMU, 7,12-dimethyl-benzoanthracen (DMBA) is known to induce oncogenic mutations across all Ras isoforms. MEF were mutagenized with DMBA (0.25 µg/ml) for 7 days before cells were exposed to increasing concentrations of POG 1 week later. Cell viabilities were measured 22 h later using a dye exclusion assay (right; (Ghost Dye Red 780, 13-0865-T500, Tonbo). SA-β-gal stainings (left) were performed 2 days after POG exposure. Filled circles denote experiments conducted with solvent; filled squares denote experiments conducted with DMBA.

Assay [6] deals with C57/BL6 mice. The assay is described as follows: NMU-induced tumorigenesis in vivo (T-cell lymphoma development). The settings on record: 30 mg NMU/kg i.p. for 5 weeks, POG-4 2 × 0.25 mg kg^-1 i.v. within one week, monitored 300 d; p = 0.0258. On the procedure: The interference of POG-4 with NMU-induced tumorigenesis was established in vivo (Figure 11). For this purpose, 30 days old C57/BL6 mice were mutagenized for 5 consecutive weeks with 30 mg NMU/kg bodyweight (b.w.) intraperitoneally (i.p.) prior to treatment with POG-4 (2 × 0.25 mg kg^-1 body weight intravenously (i.v.) injected within one week) or solvent, respectively. The mice were subsequently monitored for 300 d and T-cell lymphoma development was plotted as the time between first NMU treatment and tumor manifestation in a Kaplan Meier format. Log-rank [Mantel-Cox] test was used to compare solvent- and POG-treated cohorts.

For the next assay, the system named is A549. Briefly: Virus-induced senescence (VIS) model, dye exclusion viability test. The assay is classed as cell-based, human. To be noted: lentivirus MOI = 50, POG-4 for 22 h. On the procedure:
VIS: The human alveolar epithelial adenocarcinom cell line A549 as well as VIS-deficient VeroB4 cells were infected with a high-titer GFP-expressing lentivirus (pCDH-CMV-MCS-EF1-GFP; MOI = 50) to induce VIS.
as §1
The adenocarcinomic alveolar epithelial cell line A549 as well as VIS-deficient VeroB4 cells were infected with a high-titer GFP-expressing lentivirus (pCDH-CMV-MCS-EF1-GFP; multiplicity of infection [MOI] = 50). At day 6, the cells were stained for SA-β-gal before treating them with increasing concentrations of POG-4. After 22 h, the cell viability was measured using a dye exclusion test. Figure 12 illustrates means ± SD.

Turning to `Cn1nc(/C=C/c2ccccc2)nc2c(=O)n(C)c(=O)nc1-2` [POG-4, (E)-1,6-Dimethyl-3-styrylpyrimido[5,4-e][1,2,4]triazine-5,7(1H,6H)-dione], the “time at which the maximum concentration was reached” value with hydrogen peroxide (5 µM POG-4, 1 mM NADH) is on record as “approximately 120 minutes”. For the same compound, in the assay on hydrogen peroxide (POG 1 µM, NADH 0.1 mM to 5 mM), the “hydrogen peroxide concentration in dependence on NADH concentration” value was “higher hydrogen peroxide concentration”. Also, in the assay on hydrogen peroxide (POG-4 0.1 to 5 µM with 1 mM NADH, MOPS buffer pH 6.9, time frame of 300 min), the “generation of H2O2 (fluorescence)” value is recorded as “continuous generation of H2O2”. Moreover, the “sensitivity of senescent cells versus non-senescent tumor cells (viability)” value in assay [1] (then POG for 22 h) is recorded as “significantly more sensitive”. The “senolytic activity in senescent cells protected by expression of catalase” value in assay [1] was “did not exhibit senolytic activity”; in [1] (listed as POG), “lack sensitivity”. Moreover, the “dependence of activity on cellular NADH levels” value in assay [2] is “relied on increased levels of the reducing equivalent (NADH)”. Also, the “running time on rotating rod” value with C57/BL6 mice [3] is recorded as “significantly extended the running time”. For the same compound, the overall survival result in assay [4] (senescence-capable p53+/+ Eµ-myc lymphomas, versus DMSO, P = 0.0282) is listed as “lived significantly longer”; in assay [4] (senescence-incapable Eµ-myc;p53-null lymphomas, P > 0.05), “failed to realize such benefit”. In the assay with Liver cell preparations, the “percentage of senescent liver cells” value was “decreased significantly”. In addition, in assay [5], the “NMU-induced transformation (soft-agar colonies)” value is recorded as “ablates NMU-induced transformation”. Moreover, in the assay with C57/BL6 mice [6], the “NMU-induced tumorigenesis (time to tumor manifestation)” value is on record as “interferes with NMU-induced tumorigenesis in vivo”. Moreover, the “senolytic activity against virus-induced senescence” value in the assay on A549 is given as “exhibit senolytic activity”.

The values are drawn from EP4613274A1, “SENOLYTIC COMPOUNDS” (Freie Universität Berlin, priority 2024, dated 2025).
